Source: publication PMC7887271, “Fast acting allosteric phosphofructokinase inhibitors block trypanosome glycolysis and cure acute African trypanosomiasis in mice” (Nature Communications, 2021)
pKd: −log10 of the molar value. Values joined by “and” are separate entries in the source; they are usually repeats but may differ in a detail not shown here. Equal entries are not always repeated.

Legend:
TbPFK [1] = molecular target: T1, TbPFK (Trypanosoma brucei brucei, UniProt O15648); assay: ALDO/G3PDH/TIM linked enzyme assay for measuring PFK inhibition; assay type: biochemical; parameters: key: absorbance at 340 nm (NADH)
T1 construct: made in house; host or cells: Escherichia coli C41 (pET28a, codon optimised gene)
T1 sequence (O15648 1-487): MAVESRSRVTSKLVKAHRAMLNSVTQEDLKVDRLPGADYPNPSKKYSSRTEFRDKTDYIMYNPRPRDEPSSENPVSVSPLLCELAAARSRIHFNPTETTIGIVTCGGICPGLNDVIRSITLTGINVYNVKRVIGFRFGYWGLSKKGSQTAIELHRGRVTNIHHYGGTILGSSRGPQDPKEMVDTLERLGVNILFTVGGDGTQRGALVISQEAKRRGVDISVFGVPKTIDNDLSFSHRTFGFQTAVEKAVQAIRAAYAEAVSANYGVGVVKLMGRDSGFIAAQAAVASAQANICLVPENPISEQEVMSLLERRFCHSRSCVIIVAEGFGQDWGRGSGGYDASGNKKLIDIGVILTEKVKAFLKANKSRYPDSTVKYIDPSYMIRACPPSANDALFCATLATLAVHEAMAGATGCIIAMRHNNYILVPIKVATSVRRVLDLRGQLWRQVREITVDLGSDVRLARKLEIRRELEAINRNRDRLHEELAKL
Procedure: In the PFK/PYK/LDH assay, the linked PYK activity acts to convert the ADP produced by PFK back to ATP. As ATP is an inhibitor of human PFK (but not TbPFK) at concentrations higher than ~0.5 mM the regeneration of ATP is likely to affect the assay readout. An alternative linked assay was therefore developed using PFK/aldolase (ALDO)/glycerol-3-phosphate dehydrogenase (G3PD)/triosephosphate isomerase (TIM). In this assay F16BP produced by PFK is subsequently converted by aldolase into dihydroxyacetone phosphate (DHAP) and glyceraldehyde 3-phosphate (GA3P). TIM interconverts GA3P and DHAP, and DHAP is reduced to glycerol 3-phosphate by G3PD, alongside the oxidation of NADH to NAD^+, which was measured by observing the change in UV absorbance at 340 nm for 10 minutes at 25° C using a Spectramax© M5 Multimode plate reader.
The assay buffer consisted of 50 mM TEA, 100 mM KCl, 10 mM MgCl2, 10% glycerol, 1 mM Tris(2-carboxyethyl)phosphine (TCEP), pH 7.4. Assay mix consisted of 5 U/ml G3PD (Sigma-Aldrich G6880), 2.5 U/ml ALDO (Sigma-Aldrich A2714), 25 U/ml TIM (Sigma-Aldrich T6258), and 1.25 mM NADH. ATP and F6P were obtained from Sigma-Aldrich (A2383 and F3627, respectively). All ligands and substrates (including ATP) were used at pH 7.4). 40 µl of assay mix, followed by 45 µl assay buffer, 4 µl of 0.1 mg/ml PFK and 1 µl of 100x serially diluted inhibitors were added to a non-binding, clear 96-well plate (Greiner Bio-One 655901) and incubated at RT for 10 minutes. The reaction was started by addition of 10 µl of 6 mM F6P (Supplementary Table 1).

[2] = tested on: CYP3A4, CYP2D6, CYP2C9, CYP2C19, CYP1A2; assay: Inhibition of CYP450, five isoform panel; assay type: in vitro ADME; conditions: human, CYP450 isoform inhibition kit (BD Biosciences), 3A4, 2D6, 2C9, 2C19, 1A2, read-out: % inhibition of CYP450 isoforms
Procedure: (§1) A HepG2 cytotoxicity assay was used to determine a cellular selectivity index. HepG2 cells were seeded into 96-well plates in EMEM medium. Compounds were assessed for their effect upon cellular viability (Supplementary Methods 5.1). Inhibition of CYP450 was determined using kits from BD Biosciences (Supplementary Methods 5.2). Metabolic stability was determined using mouse […] tested at a single concentration of 5 µM. Plasma protein binding was determined using mouse and human plasma at a single concentration of 10 µM (Supplementary Methods 5.4). All PK studies in mice were carried out by Pharmidex (Supplementary Methods 6.1).
(§2) The compounds were investigated for their inhibitory effect on cytochrome P450 (CYP450) activity using five CYP450 isoforms (with fluorescent substrates in brackets): 3A4 (two substrates, BFC and DBF), 2D6 (AMMC), 2C9 (MFC), 2C19 (CEC) and 1A2 (CEC). Kits from BD Biosciences were used along with the method described by the manufacturer. […] Fluorescence was measured using a SpectraMax M5 plate reader.

TbPFK [3] = molecular target: T1, TbPFK; assay: Isothermal titration calorimetry (ITC); assay type: binding; conditions: 25 °C
CYP2D6 = molecular target: T2, CYP2D6 (Homo sapiens, UniProt P10635); assay: Inhibition of CYP2D6; assay type: in vitro ADME; conditions: CYP450 isoform inhibition kit (BD Biosciences), probe AMMC
T2 construct: purchased BD Biosciences
Procedure: as §1, §2

T2 sequence (P10635 whole entry, canonical isoform): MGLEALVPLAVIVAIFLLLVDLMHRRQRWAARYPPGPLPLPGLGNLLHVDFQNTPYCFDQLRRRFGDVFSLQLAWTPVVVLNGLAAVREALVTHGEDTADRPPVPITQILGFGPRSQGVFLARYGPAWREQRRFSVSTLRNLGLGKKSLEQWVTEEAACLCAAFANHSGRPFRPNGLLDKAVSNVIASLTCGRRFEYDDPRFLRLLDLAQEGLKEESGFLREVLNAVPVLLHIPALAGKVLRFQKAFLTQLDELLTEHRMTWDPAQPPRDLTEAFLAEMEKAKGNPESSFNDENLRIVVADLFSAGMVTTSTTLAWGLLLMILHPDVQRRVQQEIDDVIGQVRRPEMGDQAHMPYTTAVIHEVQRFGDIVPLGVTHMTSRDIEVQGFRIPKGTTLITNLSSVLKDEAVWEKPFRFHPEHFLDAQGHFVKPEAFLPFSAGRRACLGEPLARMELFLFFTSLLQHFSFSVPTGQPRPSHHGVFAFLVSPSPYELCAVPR

SMILES: CN(C)CCn1ccc2c(ccn2Cc2ccc(Cl)c(Cl)c2)c1=O [CTCB 405]
- TbPFK reaction time course reading (Figure 6a) (TbPFK [1]; 0.02 uM CTCB 405, time 0.104167): 0.5676 and 0.5291
- TbPFK reaction time course reading (Figure 6a) (TbPFK [1]; 0.02 uM CTCB 405, time 0.121528): 0.545 and 0.5077
- TbPFK reaction time course reading (Figure 6a) (TbPFK [1]; 0.02 uM CTCB 405, time 0.138889): 0.5241 and 0.488
- TbPFK reaction time course reading (Figure 6a) (TbPFK [1]; 0.02 uM CTCB 405, time 0.15625): 0.5057 and 0.4696
- TbPFK reaction time course reading (Figure 6a) (TbPFK [1]; 0.02 uM CTCB 405, time 0.173611): 0.4873 and 0.4524
- TbPFK reaction time course reading (Figure 6a) (TbPFK [1]; 0.02 uM CTCB 405, time 0.190972): 0.4705 and 0.4366
- TbPFK reaction time course reading (Figure 6a) (TbPFK [1]; 0.05 uM CTCB 405, time 0.104167): 0.6118 and 0.5698
- TbPFK reaction time course reading (Figure 6a) (TbPFK [1]; 0.05 uM CTCB 405, time 0.121528): 0.5919 and 0.5511
- TbPFK reaction time course reading (Figure 6a) (TbPFK [1]; 0.05 uM CTCB 405, time 0.138889): 0.5731 and 0.5324
- TbPFK reaction time course reading (Figure 6a) (TbPFK [1]; 0.05 uM CTCB 405, time 0.15625): 0.5537 and 0.5159
- TbPFK reaction time course reading (Figure 6a) (TbPFK [1]; 0.05 uM CTCB 405, time 0.173611): 0.5368 and 0.4994
- TbPFK reaction time course reading (Figure 6a) (TbPFK [1]; 0.05 uM CTCB 405, time 0.190972): 0.5212 and 0.4835
- TbPFK reaction time course reading (Figure 6a) (TbPFK [1]; 0.43 uM CTCB 405, time 0.104167): 0.7703 and 0.7388
- TbPFK reaction time course reading (Figure 6a) (TbPFK [1]; 0.43 uM CTCB 405, time 0.121528): 0.7663 and 0.7359
- TbPFK reaction time course reading (Figure 6a) (TbPFK [1]; 0.43 uM CTCB 405, time 0.138889): 0.7635 and 0.7314
- TbPFK reaction time course reading (Figure 6a) (TbPFK [1]; 0.43 uM CTCB 405, time 0.15625): 0.7593 and 0.7286
- TbPFK reaction time course reading (Figure 6a) (TbPFK [1]; 0.43 uM CTCB 405, time 0.173611): 0.7551 and 0.7249
- TbPFK reaction time course reading (Figure 6a) (TbPFK [1]; 0.43 uM CTCB 405, time 0.190972): 0.7517 and 0.7206
- TbPFK reaction time course reading (Figure 6a) (TbPFK [1]; 0.43 uM CTCB 405, time 0.208333): 0.7473 and 0.7169
- TbPFK reaction time course reading (Figure 6a) (TbPFK [1]; 1.29 uM CTCB 405, time 0.104167): 0.8081 and 0.7679
- TbPFK reaction time course reading (Figure 6a) (TbPFK [1]; 1.29 uM CTCB 405, time 0.121528): 0.808 and 0.7688
- TbPFK reaction time course reading (Figure 6a) (TbPFK [1]; 1.29 uM CTCB 405, time 0.138889): 0.8069 and 0.768
- TbPFK reaction time course reading (Figure 6a) (TbPFK [1]; 1.29 uM CTCB 405, time 0.15625): 0.8064 and 0.7673
- TbPFK reaction time course reading (Figure 6a) (TbPFK [1]; 1.29 uM CTCB 405, time 0.173611): 0.8063 and 0.7675
- TbPFK reaction time course reading (Figure 6a) (TbPFK [1]; 1.29 uM CTCB 405, time 0.190972): 0.8048 and 0.7672
- TbPFK reaction time course reading (Figure 6a) (TbPFK [1]; 3.88 uM CTCB 405, time 0.104167): 0.8165 and 0.7707
- TbPFK reaction time course reading (Figure 6a) (TbPFK [1]; 3.88 uM CTCB 405, time 0.121528): 0.8167 and 0.7708
- TbPFK reaction time course reading (Figure 6a) (TbPFK [1]; 3.88 uM CTCB 405, time 0.138889): 0.8177 and 0.7708
- TbPFK reaction time course reading (Figure 6a) (TbPFK [1]; 3.88 uM CTCB 405, time 0.15625): 0.8174 and 0.7711
- TbPFK reaction time course reading (Figure 6a) (TbPFK [1]; 3.88 uM CTCB 405, time 0.173611): 0.8172 and 0.7718
- TbPFK reaction time course reading (Figure 6a) (TbPFK [1]; 3.88 uM CTCB 405, time 0.190972): 0.8172 and 0.7712
- TbPFK reaction time course reading (Figure 6a) (TbPFK [1]; 11.66 uM CTCB 405, time 0.104167): 0.818 and 0.7732
- TbPFK reaction time course reading (Figure 6a) (TbPFK [1]; 11.66 uM CTCB 405, time 0.121528): 0.8194 and 0.7744
- TbPFK reaction time course reading (Figure 6a) (TbPFK [1]; 11.66 uM CTCB 405, time 0.138889): 0.8194 and 0.7745
- TbPFK reaction time course reading (Figure 6a) (TbPFK [1]; 11.66 uM CTCB 405, time 0.15625): 0.8194 and 0.7742
- TbPFK reaction time course reading (Figure 6a) (TbPFK [1]; 11.66 uM CTCB 405, time 0.173611): 0.8203 and 0.7754
- TbPFK reaction time course reading (Figure 6a) (TbPFK [1]; 11.66 uM CTCB 405, time 0.190972): 0.82 and 0.776
- TbPFK reaction time course reading (Figure 6a) (TbPFK [1]; 35 uM CTCB 405, time 0.104167): 0.7782 and 0.7773
- TbPFK reaction time course reading (Figure 6a) (TbPFK [1]; 35 uM CTCB 405, time 0.121528): 0.7782 and 0.776
- TbPFK reaction time course reading (Figure 6a) (TbPFK [1]; 35 uM CTCB 405, time 0.138889): 0.7789 and 0.7774
- TbPFK reaction time course reading (Figure 6a) (TbPFK [1]; 35 uM CTCB 405, time 0.15625): 0.7788 and 0.7781
- TbPFK reaction time course reading (Figure 6a) (TbPFK [1]; 35 uM CTCB 405, time 0.173611): 0.779 and 0.7789
- TbPFK reaction time course reading (Figure 6a) (TbPFK [1]; 35 uM CTCB 405, time 0.190972): 0.7794 and 0.7785

SMILES: CN(C)CCn1ccc2c(ccn2Cc2ccc(F)c(Br)c2)c1=O [CTCB-508, 1-[(3-Bromo-4-fluorophenyl)methyl]-5-[2-(dimethylamino)ethyl] pyrrolo[3,2-c]pyridin-4-one]
- inhibition at 10 µM [2]: ≤ 10%

SMILES: CN(C)CCn1ccc2c(ccn2Cc2ccc(Cl)c(Cl)c2)c1=O [CTCB-405, 1-[(3,4-Dichlorophenyl)methyl]-5-[2-(dimethylamino)ethyl] pyrrolo[3,2-c]pyridin-4-one]
- pKd (TbPFK [3]): 7.04
- TΔS contribution (TbPFK [3]; ITC): -4.03 kcal/mol
- ΔG (TbPFK [3]; ITC): -9.57 kcal/mol
- ΔH (TbPFK [3]; ITC): -13.6 kcal/mol
- inhibition at 10 µM (CYP2D6): 60%
